Data reported in US9789101B2, “Methods and compositions for treating microbial infection using pyrroloquinone” (HELPERBY THERAPEUTICS LIMITED, priority 2010, dated 2017).
Structures can show the parent of a compound that is named as a salt.

How the values were obtained:
Type in all cases: cell-based, Staphylococcus aureus (Oxford)
[1] = tested on: log phase Staphylococcus aureus; assay: Chequerboard analysis of HT00800059 and HT61 against log phase Staphylococcus aureus
Procedure: (§1) Staphylococcus aureus (Oxford); Gram positive; Reference strain.
(§2) Log phase growth of methicilin sensitive Staphylococcus aureus (MSSA) was carried out as follows: • Bacteria were grown in 10 ml of nutrient broth (No. 2, (Oxoid)) overnight at 37° C. with continuous shaking at 120 rpm. The overnight cultures were diluted 1000× with iso-sensitest broth. The cultures were incubated at 37° C. with shaking for 1-2 hours to reach log CFU 6. Viability of the bacteria was estimated by colony forming unit (CFU) counts. From serial 10-fold dilutions of the experimental cultures, 100 μl samples were added to triplicate plates of nutrient agar plates (Oxoid) or blood agar plates (Oxoid). CFUs were counted after incubation of the plates at 37° C. for 24 hours.
(§3) Bacterial cultures: 10 μl of overnight cultures was added to 10 ml of fresh iso-sensitest broth to make the inoculation to 10^6 CFU/ml. 290 μl of the cell suspension was added to each well of the 96 well plate, which was incubated at 37° C. for 24 hours. 300 μl of iso-sensitest broth without bacterial cells were added to wells of the plate as a no bacterial control.
(§4) MIC determination: The optical density of the bacterial cells was read at 405 nm using a plate reader (Bio TEK). The MIC concentration was determined as the lowest concentration of drug which inhibits the bacterial growth.
(§5) HT61 was dissolved in DMSO to the stock concentration of 10 mg/ml.
(§6) HT00800059 was dissolved in H2O to the stock solution 30.07 mg/ml.
The drugs were first diluted as follows: • 28.8 μl of HT61 at 10 mg/ml was added into 271.2 μl of H2O followed by diluting 2 fold for 6 times.
Both drugs were mixed as following pattern: 10 μl of HT00800059 from each dilution was added into the wells of a 96 well plate from top to bottom and 10 μl of HT61 from each dilution was added to the same 96 well plate from left to right. After addition of 280 μl log phase cell suspension, the final concentrations of drugs for each well in the 96 well plate are shown in the table below.
Incubation of the compounds with the bacterial suspension was carried out for 24 hours. The kill effect of the drug combination and signal drug MIC was measured by optical density reading at 405 nm with a plate reader (Bio TEK). The MIC concentration was determined as the lowest concentration of drug which inhibits the bacterial growth.
(§7) The fractional inhibitory concentration (FIC) index was carried out as follows: (MIC of drug A, tested in combination)/(MIC of drug A, tested alone)+(MIC of drug B, tested in combination)/(MIC of drug B, tested alone). The interaction was defined as synergistic if the FIC index was <1, additive if the FIC index was =1 and antagonistic if the FIC index was >1.

[2] = tested on: stationary phase Staphylococcus aureus; assay: In vitro efficacy test against stationary phase Staphylococcus aureus (CFU counts)
Procedure: as §1
Stationary phase growth of methicilin sensitive Staphylococcus aureus (MSSA) was carried out as follows:
Subculture of the bacterial strains on agar plates: Overnight S. aureus bacterial cultures were stored at −70° C. with 20% glycerol (cryoprotectant). A loopful of the frozen cells was streaked on a blood agar plate which was incubated at 37° C. overnight (or longer) as culture plate A. A single colony of each strain from the culture plate A was streaked on the blood agar plate which was incubated at 37° C. overnight (or longer) as culture plate B. The culture plate B was stored at 4° C. for a week and served as the initial inoculation plate.
Bacterial growth in broth culture: A single colony from culture plate B was inoculated in 10 ml of nutrient broth (No. 2, (Oxoid)), which was incubated overnight at 37° C. with continuous shaking at 120 rpm. 200 μl of the overnight culture was added into a 500 ml bottle containing 100 ml of nutrient broth. The 100 ml culture was incubated at 37° C. with continuous shaking for 6 to 7 days. Viability of the cultures is estimated by colony forming unit (CFU) counts at 2 hour intervals for the first 24 hours and 12 to 24 hours afterwards.
Colony Forming Unit (CFU) counts were performed as follows: From serial 10-fold dilutions of the cultures, 100 μl samples were added to one third of blood agar plates (Oxoid) in triplicate. CFUs were counted using an aCoLyte colony counter (Synbiosis) after incubation of the plates at 37° C. for 24 hours or longer.
7 day old stationary phase cultures were used. The stationary phase cultures were diluted to obtain CFU counts in the cell suspension of 10^6 to 10^7 CFU/ml. The cell suspension was used to test drug sensitivity.
as §5
HT00800059 was dissolved in H2O to the stock solution 10 mg/ml
The drugs were first diluted as follows: • 7.2 μl of HT61 at 10 mg/ml was added into 292.8 μl of H2O followed by diluting 2 fold, 3 times. • 57.6 μl of HT00800059 at 10 mg/ml was added into 242.4 μl of H2O followed by diluting 2 fold, 2 times. • 10 μl of HT00800059 from each dilution was added into the wells of a 96 well plate followed by the addition of 290 μl of bacterial cell suspension to make the final concentrations of HT00800059 at 64, 32 and 0 μg/ml. • […]
In combination of two drugs: 10 μl of HT61 from each dilution was added into the wells of a 96 well plate followed by the addition of 10 μl of HT00800059 from each dilution. […]

[3] = tested on: log phase Staphylococcus aureus; assay: Chequerboard analysis of HT00800059 with HT230 or HT281 against log phase Staphylococcus aureus
Procedure: as §1, §2, §3, §4
HT230 was dissolved in DMSO to the stock concentration of 10 mg/ml.
HT281 was dissolved in DMSO to the stock concentration of 10 mg/ml.
as §6
HT230 or HT281 (10 mg/ml) was firstly diluted to 0.96 mg/ml, then a serial of 2 fold dilution was carried out.
This was followed by the addition of 280 μl of log phase culture at 10^6 CFU/ml to make the final concentrations of each drug as shown.
In the above table, values in bold text are for HT00800059. Values in plain text are for HT230 or HT281. The numbers shown in each well are μg/ml.
Incubation of the compounds with the bacterial suspension was carried out for 24 hours. The kill effects of the drug combination were measured by optical density reading at 405 nm with a plate reader (Bio TEK).
as §7

[4] = Staphylococcus aureus, read-out: alone MIC

CCCCOc1ccc(C(=O)CCN2CCCCC2)cc1 [HT00800059, dyclonine (1-(4-Butoxyphenyl)-3-(1-piperidinyl)-1-propanone) hydrochloride]
MIC ([1]; Staphylococcus aureus): 512 µg/mL | MIC [1, 4]: 512 µg/mL | MIC ([1]; Staphylococcus aureus, with HT61 4 μg/ml, Plate 1, read-out: MIC of HT00800059 + HT61): 128 µg/mL | MIC ([1]; drug alone, Plate 2): 512 µg/mL | HT00800059 MIC in combination ([1]; with HT61 4 μg/ml): 128 µg/mL | MIC of HT00800059 + HT61 ([1]; with HT61 4 μg/ml, Plate 2): 128 µg/mL | CFU killed ([2]; 32 μg/ml, over 8 hours): about 10^4 CFU | CFU killed ([2]; 64 μg/ml, over 6 hours): about 10^7 CFU | MIC after combination ([3]; HT230/HT00800059 chequerboard): 64 µg/mL | MIC before combination ([3]; HT230/HT00800059 chequerboard): 512 µg/mL | MIC after combination ([3]; HT281/HT00800059 chequerboard): 128 µg/mL | MIC before combination ([3]; HT281/HT00800059 chequerboard): 512 µg/mL | MIC [3, 4]: 512 µg/mL | HT00800059 MIC in combination ([3]; with HT230 at 2 μg/ml): 64 µg/mL | HT00800059 MIC in combination ([3]; with HT281 at 4 μg/ml): 128 µg/mL
